{"source": "patent US20040161419A1", "about": "“Placental stem cells and uses thereof” (priority 2002, published 2004)", "key": {"placental stem cells [1]": {"test_system": "placental stem cells", "test": "Differentiation into neural cells", "assay_type": "cell-based, human", "protocol": "[…] Immunohistochemical analysis of the expression of the different genes was conducted with antibodies specific to the human proteins."}, "placental stem cells [2]": {"test_system": "placental stem cells", "test": "Differentiation into cardiomyocytes (RT-PCR)", "assay_type": "cell-based, human", "details": "1 mM, day 14 versus day 0, RT-PCR", "protocol": "Placental stem cells (PSCs) were cultured in the presence of L-Ascorbic acid 2-phosphate (1 mM) for 14 days. Total RNA was extracted on day 0 and day 14 and used for RT-PCR analysis. Cardiomyocyte specific genes primers were designed specifically for cardiac transcription factor GATA-4, atrial myosin light chain type 2 (MLC-2A), ventricular myosin light chain type 2 (MLC-2V), human atrial natriuretic peptide (hANP), and cardiac troponin T (cTnT). The PCR reaction conditions were 45 cycles/57° C. annealing temperature. The PCR products were size fractioned by 2.5% agarose gel electrophoresis."}, "placental stem cells [3]": {"test_system": "placental stem cells", "test": "Differentiation into pancreatic cells (RT-PCR)", "assay_type": "cell-based, human", "details": "on Matrigel, 14 days", "protocol": "Placental stem cells were maintained in standard growth media for 7 days and then trypsinized and seeded on cultures previously coated with matrigel (MG), a commercially available form of basement membrane proteins. Cultures were coated with 20% (v/v; matrigel to media) or 100% matrigel with essentially identical results. […] After 10-14 days the cells were lysed and RNA was isolated, and reverse transcriptase-PCR analysis was conducted with PCR primers specific for Pax 6, PDX-1 Nkx2.2, insulin, glucagon and an internal control, beta-actin."}, "CYP1A1/2": {"test_system": "CYP1A1/2", "test": "EROD assay (ethoxyresorufin-o-deethylase)", "assay_type": "cell-based", "details": "prior exposure 50 uM; human hepatocytes and hepatocytes derived from PSCs", "protocol": "Human hepatocytes were cultured using the conditions of Strom et al. Methods in Enzymology 272:388-401 (1996).\nAn EROD assay which measures the conversion of ethoxy-resorufin to hydroxyresorufin was used to detect expression of CYP1A1 or CYP1A2 in human hepatocytes and hepatocytes derived from placental stem cells (Kelley et al. J. Biomolecular Screening 5:249-253 (2000). CYP1A activity in these cells was induced by exposing the hepatocytes to beta-naphthoflavone (50 uM)."}, "placental stem cells [4]": {"test_system": "placental stem cells", "procedure": "The cells were cultured for either 7-10 days or until the cultures grew to confluence. The cells were trypsinized and reseeded in 6 well plates. The cells were subjected to different culture conditions, having varying growth factors supplementing the DMEM or MEM based medium. […] Placental stem cells were cultured for an additional 14 days. At the end of 14 days, the cells were evaluated for the expression of human albumin, CYP3A4, A1AT, or C/EBP-alpha."}}, "data": [{"compound": "CC1=C(/C=C/C(C)=C/C=C/C(C)=C/C(=O)O)C(C)(C)CCC1", "note": "[all trans retinoic acid, all-trans retinoic acid]", "values": [{"measurement": "expression of GFAP, beta-tubulin III and CNP", "setting": "placental stem cells [1]; immunofluorescence, FIG. 9A", "result": "express"}, {"measurement": "expression of nestin and glutamic acid decarboxylase (GAD)", "setting": "placental stem cells [1]; over 7 days of culture, FIG. 9B", "result": "increase"}]}, {"compound": "O=C1O[C@H]([C@@H](O)CO)C(O)=C1OP(=O)(O)O", "note": "[L-Ascorbic acid 2-phosphate]", "values": [{"measurement": "expression of MLC-2A and MLC-2V genes", "setting": "placental stem cells [2]", "result": "significantly up-regulated"}]}, {"compound": "NC(=O)c1cccnc1", "note": "[nicotinamide]", "values": [{"measurement": "expression of pancreatic markers (insulin, glucagon, PDX-1, Pax6, Nkx2.2)", "setting": "placental stem cells [3]", "result": "express insulin and glucagon"}]}, {"compound": "O=c1cc(-c2ccccc2)oc2ccc3ccccc3c12", "note": "[beta-naphthoflavone (BNF), beta-naphthoflavone]", "values": [{"measurement": "effect on EROD activity", "setting": "CYP1A1/2", "result": "induced"}]}, {"compound": "FGF 2: fibroblast growth factor 2, media supplement", "values": [{"measurement": "liver specific gene expression (albumin, CYP3A4, A1AT, C/EBP-alpha)", "setting": "placental stem cells [4]", "result": "did not enhance liver specific gene expression"}]}, {"compound": "hepatocyte growth factor (HGF): hepatocyte growth factor, media supplement", "values": [{"measurement": "liver specific gene expression (albumin, CYP3A4, A1AT, C/EBP-alpha)", "setting": "placental stem cells [4]", "result": "did not enhance liver specific gene expression"}]}]}
